Test results from US10821117B2, “Estrogen therapy for brain gray matter atrophy and associated disability” (The Regents of the University of California, priority 2014, dated 2020).

Legend:
[1] = set-up: species or system human; conditions: in vivo
From the text: Safety assessments, including clinical, blood laboratory safety testing and assessments of estriol levels, occurred at months 0, 3, 6, 12, 18, and 24. On study blood tests included complete blood count (CBC) with differential and platelets; chemistry panel including sodium, potassium, creatinine, BUN, glucose, total protein, albumin, bilirubin (total), alkaline phosphatase, AST (SGOT), and ALT (SGPT), and lipid profile (HDL, LDL and triglycerides, cholesterol. Gynecologic exams were done at month 0, 6, 18 and at month 24 exit, with uterine ultrasounds at months 6, 18 and at month 24 exit. Mammograms were done in screening and at month 24 exit. Adverse event analysis was based on the percentage of patients who discontinued the study and the percentage of patients who discontinued the study possibly due to adverse events.
The rate of discontinuation was similar between groups (FIG. 1). A total of 60 patients (73.2%) in the Estriol plus GA group and 56 (73.7%) in the Placebo plus GA group completed the 24 month study treatment duration. Of the 158 patients, 15.8% discontinued the study during the first year (7.6% in the Estriol plus GA group and 8.2% in the Placebo plus GA group), and an additional 10.7% discontinued the study during the second year (6.3% and 4.4%, respectively). […] The most common reasons for discontinuation were lost to follow up or patient's decision based on family issues or time constraints.

[2] = test system: relapsing remitting multiple sclerosis patients; experiment: Multiple Sclerosis Functional Composite (MSFC): PASAT3, 9-Hole Peg Test, 25-foot Walk Time; type: in vivo, human
From the text: Secondary efficacy end points included the proportion of subjects with a relapse over all 24 months, a change in PASAT cognitive testing, a sustained improvement in PASAT cognitive testing (as defined by an increase of at least 3 points sustained over at least 6 months), a change in EDSS scores from baseline, disability progression (as defined by an increase in EDSS of at least 1.0 point in subjects with a baseline score of 1.0 or higher, or by an increase of at least a 1.5 points in subjects with a baseline score of 0, each sustained for at least 6 months). Tertiary end points included gray matter atrophy on MRI.
Linear mixed effects model was carried out to compare the percent change in whole gray matter and cortical gray matter between treatment groups. For the exploratory endpoints of EDSS, PASAT, and brain volume measures, linear mixed effects model was used to compare treatment groups at 12 and 24 months. Linear mixed effects model was carried out to evaluate the association between PASAT change and percent brain volume change.
Another clinical disability measure with treatment effects was the timed 25-foot walk test. This test measures how many seconds it takes to walk 25 feet, with higher scores indicating worse disability. […] This beneficial effect of estriol treatment on 25-foot walking times is consistent with the beneficial effect of estriol treatment on EDSS scores since the latter is weighted toward being an indicator of ambulation.
There were no significant differences between groups in the Multiple Sclerosis Functional Composite (MSFC), which reflects a composite of scores including the Paced Auditory Serial Addition Test (PASAT) for cognition, the 9 hole peg test and the 25 foot walk test (Table 4). However, an interesting effect of combination treatment was observed on cognitive disability. A perfect PASAT score is 60, with scores lower than 55 serving as a continuous variable for disability. […] After 12 months of treatment, patients receiving Copaxone® plus estriol continued to have high PASAT scores to the end of study at month 24, while participants receiving placebo began to show […] PASAT scores by month 24. […] This represents repair of disability, not merely prevention of worsening. This beneficial effect on PASAT scores at 12 months in the Estriol plus GA group could not be attributed to practice effects of repeated testing since the comparison was with the Placebo plus GA group tested at identical time points.

[3] = test system: multiple sclerosis patients; experiment: Total (whole) brain gray matter volume change on brain MRI, SIENAX segmentation (Example 1); type: in vivo, human; conditions: over 24 months
Procedure: The effect of estriol treatment as compared to placebo treatment on total (whole) brain gray matter (GM) atrophy was assessed since gray matter atrophy is a surrogate marker for permanent disability in MS. […] The GM volume change from the month 0 scan to the month 12 scan and then the volume change from the month 0 scan to the month 24 scan was calculated.

[4] = first of two lines headed Month 24 (N = 70 / N = 60), positive value indicates worsening
[5] = positive value indicates improvement
[6] = positive value indicates worsening
[7] = second line headed Month 24 (N = 60 / N = 55), positive value indicates worsening

Substance: glatiramer acetate [Placebo + GA]
- Adverse events leading to discontinuation - (%) [1]: (6%)
- Endometrial biopsies performed - (%) [1]: (8) %
- Endometrial thickness >8 mm (ultrasound) - (%) [1]: (36) %
- Fibrocystic disease on clinical exam, number [1]: 4
- Fibrocystic disease on clinical exam, value in parentheses [1]: (5)
- Fibroids (ultrasound) - (%) [1]: (11) %
- Mammogram with malignancy [1]: 0
- Vaginal infection - no. of events [1]: occurred more
- PASAT score change at 12 months, within group comparison ([2]; FIG. 7B): no change
- PASAT scores improvement compared with baseline ([2]; by 12 months of treatment): no significant improvement
- 25-foot Walk Time, Change from baseline at Month 24, Mean ± SD [2, 4]: 0.0 ± 0.9
- 25-foot Walk Time, Change from baseline at Month 24, Median [2, 4]: 0.0
- timed 25-foot walk test, walk time ([2]; over the study, higher scores indicate worse disability): significantly increased
- MSFC Score, Change from baseline at Month 12, Mean ± SD [2, 5]: 0.06 ± 0.38
- MSFC Score, Change from baseline at Month 24, Mean ± SD [2, 5]: 0.09 ± 0.43
- PASAT3 score - All Patients, % change from baseline at Month 12, Mean ± SD [2, 5]: 0.8 ± 9.9%
- PASAT3 score - All Patients, % change from baseline at Month 12, Median [2, 5]: 0%
- PASAT3 score - All Patients, % change from baseline at Month 24, Mean ± SD [2, 5]: 2.7 ± 10.3%
- PASAT3 score - All Patients, % change from baseline at Month 24, Median [2, 5]: 0%
- PASAT3 score - All Patients, change from baseline at Month 12, Mean ± SD [2, 5]: 0.1 ± 4.5
- PASAT3 score - All Patients, change from baseline at Month 12, Median [2, 5]: 0
- PASAT3 score - All Patients, change from baseline at Month 24, Mean ± SD [2, 5]: 1.1 ± 4.3
- PASAT3 score - All Patients, change from baseline at Month 24, Median [2, 5]: 0
- PASAT3 score - Patients with baseline score <55, % change from baseline at Month 12, Mean ± SD [2, 5]: 4.0 ± 14.0%
- PASAT3 score - Patients with baseline score <55, % change from baseline at Month 12, Median [2, 5]: 3.8%
- PASAT3 score - Patients with baseline score <55, % change from baseline at Month 24, Mean ± SD [2, 5]: 6.9 ± 14.7%
- PASAT3 score - Patients with baseline score <55, % change from baseline at Month 24, Median [2, 5]: 9.1%
- PASAT3 score - Patients with baseline score <55, change from baseline at Month 12, Mean ± SD [2, 5]: 1.6 ± 6.0
- PASAT3 score - Patients with baseline score <55, change from baseline at Month 12, Median [2, 5]: 1.0
- PASAT3 score - Patients with baseline score <55, change from baseline at Month 24, Mean ± SD [2, 5]: 3.0 ± 5.9
- PASAT3 score - Patients with baseline score <55, change from baseline at Month 24, Median [2, 5]: 4.0
- 9-Hole Peg Test, Change from baseline at Month 12, Mean ± SD [2, 6]: −0.1 ± 1.8
- 9-Hole Peg Test, Change from baseline at Month 12, Median [2, 6]: −0.4
- 9-Hole Peg Test, Change from baseline at Month 24, Mean ± SD [2, 6]: −0.4 ± 1.5
- 9-Hole Peg Test, Change from baseline at Month 24, Median [2, 6]: −0.5
- 25-foot Walk Time, Change from baseline at Month 24, Mean ± SD [2, 7]: 0.1 ± 1.1
- 25-foot Walk Time, Change from baseline at Month 24, Median [2, 7]: 0.1
- overall rate of GM atrophy [3]: over 1.0 % per year
